Reference: paper PMC9762201 (Current Research in Pharmacology and Drug Discovery, 2022)
Entries after “also recorded” stand apart in the source; their conditions may differ.

What was measured:
[1] = test system: α1A-AR; assay: cAMP assay and PAM assay in Rat-1 fibroblasts expressing α1A-AR; assay type: cell-based; settings: for PAM activity (NE-mediated cAMP potentiation, PAM assay): NE 10^−4 M held constant, compound dose-response; for intrinsic (basal) agonist activity, cAMP: compound alone, dose-response
[2] = target: T1, α1A-AR (Homo sapiens, UniProt P35348); assay: Total inositol phosphate assay in Rat-1 fibroblasts expressing α1A-AR; assay type: cell-based; settings: for intrinsic (basal) agonist activity, inositol phosphate: compound alone, dose-response
T1 sequence (P35348 1-466): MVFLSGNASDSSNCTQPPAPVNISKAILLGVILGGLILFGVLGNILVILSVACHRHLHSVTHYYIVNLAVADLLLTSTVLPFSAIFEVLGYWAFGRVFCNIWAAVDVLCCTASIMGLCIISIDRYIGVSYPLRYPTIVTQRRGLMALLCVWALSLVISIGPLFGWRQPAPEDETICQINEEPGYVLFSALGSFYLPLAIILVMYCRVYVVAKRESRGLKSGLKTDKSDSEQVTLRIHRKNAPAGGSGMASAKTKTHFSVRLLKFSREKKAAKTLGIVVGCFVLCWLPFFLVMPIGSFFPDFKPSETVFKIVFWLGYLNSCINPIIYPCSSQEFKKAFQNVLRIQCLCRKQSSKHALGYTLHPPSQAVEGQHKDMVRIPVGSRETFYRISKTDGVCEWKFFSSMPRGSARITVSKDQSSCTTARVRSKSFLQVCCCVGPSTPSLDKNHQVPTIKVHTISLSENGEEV

[3] = target: T1, α1A-AR; assay type: binding; settings: for extent of inhibition of 125I-HEAT binding at α1A-AR: 0.5 mM GTP
[4] = target: T1, α1A-AR; settings: ref Hwa et al., 1995; cited from earlier work
[5] = target: T2, α1D-AR (Homo sapiens, UniProt P25100); assay type: binding; settings: 0.5 mM GTP
T2 sequence (P25100 1-572): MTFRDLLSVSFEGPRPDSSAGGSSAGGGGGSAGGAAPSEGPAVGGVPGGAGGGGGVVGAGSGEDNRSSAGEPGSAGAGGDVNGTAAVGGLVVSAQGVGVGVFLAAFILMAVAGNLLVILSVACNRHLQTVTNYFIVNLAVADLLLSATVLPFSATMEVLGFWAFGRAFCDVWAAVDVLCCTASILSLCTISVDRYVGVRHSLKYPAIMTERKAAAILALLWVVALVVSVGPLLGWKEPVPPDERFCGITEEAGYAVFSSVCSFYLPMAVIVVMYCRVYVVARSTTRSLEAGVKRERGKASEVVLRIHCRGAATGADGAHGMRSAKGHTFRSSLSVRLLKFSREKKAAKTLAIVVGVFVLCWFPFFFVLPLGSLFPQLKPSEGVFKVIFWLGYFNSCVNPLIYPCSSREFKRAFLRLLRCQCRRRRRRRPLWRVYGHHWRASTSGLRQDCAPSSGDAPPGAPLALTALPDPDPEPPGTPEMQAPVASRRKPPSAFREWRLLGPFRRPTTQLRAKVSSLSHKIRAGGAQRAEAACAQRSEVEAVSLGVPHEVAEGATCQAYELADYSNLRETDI

[6] = test system: α1B-AR; assay type: binding; settings: 0.5 mM GTP
[7] = target: T3, α2A-AR (Homo sapiens, UniProt P08913); assay type: binding; settings: Cos-1 membranes
T3 sequence (P08913 1-465): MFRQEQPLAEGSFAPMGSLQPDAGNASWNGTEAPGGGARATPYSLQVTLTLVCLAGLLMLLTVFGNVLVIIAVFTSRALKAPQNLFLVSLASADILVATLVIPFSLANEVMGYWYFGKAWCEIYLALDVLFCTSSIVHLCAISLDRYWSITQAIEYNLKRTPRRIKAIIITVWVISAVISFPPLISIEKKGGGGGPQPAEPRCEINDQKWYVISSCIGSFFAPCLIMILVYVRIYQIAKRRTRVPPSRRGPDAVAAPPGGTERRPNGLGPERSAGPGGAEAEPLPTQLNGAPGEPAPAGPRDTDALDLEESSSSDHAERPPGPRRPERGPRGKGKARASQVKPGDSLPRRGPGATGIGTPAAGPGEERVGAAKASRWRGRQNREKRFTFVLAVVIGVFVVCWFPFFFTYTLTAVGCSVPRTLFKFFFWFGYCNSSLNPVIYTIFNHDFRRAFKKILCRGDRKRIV

Row | SMILES | PAM activity (NE-mediated cAMP potentiation, PAM assay) [1] | intrinsic (basal) agonist activity, inositol phosphate [2] | intrinsic (basal) agonist activity, cAMP [1] | also measured
1 | CC(C)Cc1c(OCC2=NCCN2)ccc(Cl)c1N(C)S(C)(=O)=O.Cl [Cmpd-7, N-(6-Chloro-3-((4,5-dihydro-1H-imidazol-2-yl)methoxy)-2-isobutylphenyl)-N-methylmethanesulfonamide hydrochloride] | abolished PAM activity | – | – | –
2 | CC(C)CCc1c(OCC2=NCCN2)cccc1N(C)S(C)(=O)=O.Cl [Cmpd-10, N-(3-((4,5-Dihydro-1H-imidazol-2-yl)methoxy)-2-isopentylphenyl)-N-methylmethanesulfonamide hydrochloride] | retained PAM activity; also recorded: display PAM effect | do not show any basal activity | do not show any basal activity | –
3 | CC(C)Cc1c(OCC2=NCCN2)cccc1N(C)S(=O)(=O)C(C)C.Cl [Cmpd-12, N-(3-((4,5-Dihydro-1H-imidazol-2-yl)methoxy)-2-isobutylphenyl)-N-methylpropane-2-sulfonamide hydrochloride] | lost PAM activity; also recorded: display competitive inhibition; also recorded: abolished PAM activity | do not show any basal activity | do not show any basal activity | –
4 | CN(c1cccc(OCC2=NCCN2)c1CC(F)(F)F)S(C)(=O)=O.Cl [Cmpd-13, N-(3-((4,5-Dihydro-1H-imidazol-2-yl)methoxy)-2-(2,2,2-trifluoroethyl)phenyl)-N-methylmethanesulfonamide hydrochloride] | lost PAM activity; also recorded: display competitive inhibition; also recorded: abolishes PAM activity | do not show any basal activity | do not show any basal activity | –
5 | CN(c1cccc(OCC2=NCCN2)c1CC(C)(C)C)S(C)(=O)=O.Cl [Cmpd-14, N-(3-((4,5-Dihydro-1H-imidazol-2-yl)methoxy)-2-neopentylphenyl)-N-methylmethanesulfonamide hydrochloride] | retained PAM activity; also recorded: display PAM effect | do not show any basal activity | do not show any basal activity | –
6 | NC[C@H](O)c1ccc(O)c(O)c1 [NE, norepinephrine] | – | – | – | fraction of receptor in the high affinity state, NE alone ([3]; absence of GTP): 15%
7 | Cc1c(OCC2=NCCN2)ccc(Cl)c1NS(C)(=O)=O [RO115-1240, Dabuzalgron, reference compound] | neither RO115-1240 nor cirazoline displayed any PAM characteristics | partial agonists | partial agonists | effect on Epi-mediated inositol phosphate signal at α1A-AR [2]: effects consistent with a partial or full agonist; effect on NE-mediated inositol phosphate signal at α1A-AR [2]: effects consistent with a partial or full agonist
8 | c1ccc(C2CC2)c(OCC2=NCCN2)c1 [cirazoline, reference compound] | competitive inhibition; also recorded: neither RO115-1240 nor cirazoline displayed any PAM characteristics | partial agonists | partial agonists; also recorded: greater intrinsic activity than RO115-1224 | selectivity for α1A-AR against the α1B- and α1D-AR subtypes [4]: 10-50 fold; extent of inhibition of 125I-HEAT binding at α1A-AR [3]: fully inhibit; also recorded: completely inhibited; effect on NE binding at α1A-AR ([3]; compound 10^−5 M, absence of GTP, 125I-HEAT): fully-inhibited the binding of NE; also recorded: completely competes off NE binding; extent of inhibition of 125I-HEAT binding at α1D-AR [5]: completely inhibited; binding at α1B-AR (125I-HEAT competition) [6]: completely inhibited; effect on Epi-mediated cAMP response at α1A-AR ([1]; Epi dose-response, propranolol and rauwolscine present): rightward curve-shifting effects; also recorded: rightward shifting competitive effects; effect on NE-mediated cAMP response at α1A-AR ([1]; NE dose-response, propranolol and rauwolscine present): rightward curve-shifting effects; also recorded: rightward shifting competitive effects
9 | Cc1ccc(N(CC2=NCCN2)c2cccc(O)c2)cc1 [phentolamine] | – | – | – | extent of inhibition of 125I-HEAT binding at α1A-AR [3]: fully inhibit; also recorded: completely inhibited
10 | COC(=O)[C@H]1[C@H]2C[C@H]3c4[nH]c5ccccc5c4CCN3C[C@H]2CC[C@@H]1O [rauwolscine, reference compound] | – | – | – | extent of inhibition of 3H-RX821002 binding at α2A-AR [7]: fully inhibited
